# Test results as given in patent US20120238549A1, “Nuclear Hormone Receptor Modulators” (ABBOTT LABORATORIES, priority 2011, published 2012).
# Target: T1, Glucocorticoid Receptor (GR) (Homo sapiens, UniProt P04150)
# T1 construct: purchased Invitrogen P2893
# T1 sequence (P04150 1-777): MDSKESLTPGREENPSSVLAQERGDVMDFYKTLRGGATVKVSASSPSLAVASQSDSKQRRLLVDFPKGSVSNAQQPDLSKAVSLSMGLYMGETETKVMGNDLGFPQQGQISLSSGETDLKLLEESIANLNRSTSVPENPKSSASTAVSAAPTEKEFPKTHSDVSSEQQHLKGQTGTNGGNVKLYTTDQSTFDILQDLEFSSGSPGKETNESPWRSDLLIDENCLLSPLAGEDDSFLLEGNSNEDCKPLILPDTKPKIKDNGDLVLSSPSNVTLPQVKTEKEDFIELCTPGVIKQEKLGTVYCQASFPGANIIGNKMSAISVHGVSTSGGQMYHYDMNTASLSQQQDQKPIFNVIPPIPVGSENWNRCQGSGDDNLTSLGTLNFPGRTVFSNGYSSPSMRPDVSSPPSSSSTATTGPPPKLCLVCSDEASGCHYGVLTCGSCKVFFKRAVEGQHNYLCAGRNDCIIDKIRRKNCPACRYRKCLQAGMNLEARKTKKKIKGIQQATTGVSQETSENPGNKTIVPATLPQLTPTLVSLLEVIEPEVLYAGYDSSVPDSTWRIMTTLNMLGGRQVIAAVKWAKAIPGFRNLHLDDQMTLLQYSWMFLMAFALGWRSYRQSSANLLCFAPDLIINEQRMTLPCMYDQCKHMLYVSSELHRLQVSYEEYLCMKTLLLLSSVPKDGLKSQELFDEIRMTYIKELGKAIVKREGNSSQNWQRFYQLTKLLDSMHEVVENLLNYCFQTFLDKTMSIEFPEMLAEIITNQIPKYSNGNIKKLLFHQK
# Assay: GR Florescence Polarization Assay (PolarScreen Glucocorticoid Receptor Competitor Assay, Red)
# Settings: Fluorescense polarization binding ranges; competition with fluorescent glucocorticoid, incubated overnight at 4° C.
# Method in brief: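 Competitive fluorescence polarization using fluorescent glucocorticoid tracer and human GR in kit buffer. Compounds serially diluted 1:4 in DMSO, incubated with tracer and GR overnight at 4 °C before polarization read.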
row,Molecule,IC50
1,CC[C@@]1(O)CC[C@@]2(CC)c3ccc(C(=O)Nc4cccnc4C)cc3COC[C@H]2C1 [Example 140],0.1 to 1 µM
2,CC[C@]1(O)CC[C@]2(CC)c3ccc(C(=O)Nc4cccnc4C)cc3COC[C@@H]2C1 [Example 141],> 10 µM
3,"(3R,4aR,11bR)-11b-benzyl-3-methyl-2,3,4,4a,5,6,7,11b-octahydro-1H-dibenzo[a,c]cycloheptene-3,9-diol; compound with (3S,4aS,11bS)-11b-benzyl-3-methyl-2,3,4,4a,5,6,7,11b-octahydro-1H-dibenzo[a,c]cycloheptene-3,9-diol [Example 7]",< 0.1 µM
4,"(3R,4aS,11bS)-11b-Benzyl-3-methyl-2,3,4,4a,5,6,7,11b-octahydro-1H-dibenzo[a,c]cycloheptene-3,9-diol; compound with (3S,4aR,11bR)-11b-benzyl-3-methyl-2,3,4,4a,5,6,7,11b-octahydro-1H-dibenzo[a,c]cycloheptene-3,9-diol [Example 6]",< 0.1 µM

# Continued, values first:
row,IC50,Molecule
1,< 0.1 µM,"CC[C@@]12CC[C@](O)(CCC(F)(F)F)C[C@@H]1CCCc1cc(C(=O)Nc3cccnc3C)ccc12.CC[C@]12CC[C@@](O)(CCC(F)(F)F)C[C@H]1CCCc1cc(C(=O)Nc3cccnc3C)ccc12 [Example 133, (7aS,9S,11aR)-11a-Ethyl-9-hydroxy-9-(3,3,3-trifluoro-propyl)-6,7,7a,8,9,10,11,11a-octahydro-5H-dibenzo[a,c]cycloheptene-3-carboxylic acid (2-methyl-pyridin-3-yl)-amide; compound with (7aR,9R,11aS)-11a-ethyl-9-hydroxy-9-(3,3,3-trifluoro-propyl)-6,7,7a,8,9,10,11,11a-octahydro-5H-dibenzo[a,c]cycloheptene-3-carboxylic acid (2-methyl-pyridin-3-yl)-amide]"
2,< 0.1 µM,"CC[C@@]1(O)CC[C@@]2(Cc3ccccc3)c3ccc(C(=O)Nc4cccc(N)c4)cc3CCC[C@H]2C1 [Example 142, (7aS,9R,11aS)-11a-Benzyl-9-ethyl-9-hydroxy-6,7,7a,8,9,10,11,11a-octahydro-5H-dibenzo[a,c]cycloheptene-3-carboxylic acid (3-amino-phenyl)-amide]"
3,< 0.1 µM,"CC[C@@]1(O)CC[C@@]2(Cc3ccccc3)c3ccc(C(=O)Nc4ccc(N)cc4)cc3CCC[C@H]2C1 [Example 143, (7aS,9R,11aS)-11a-Benzyl-9-ethyl-9-hydroxy-6,7,7a,8,9,10,11,11a-octahydro-5H-dibenzo[a,c]cycloheptene-3-carboxylic acid (4-amino-phenyl)-amide]"
4,< 0.1 µM,"CCC[C@@]1(O)CC[C@@]2(CC)c3ccc(C(=O)Nc4ccccc4Cl)cc3CCC[C@H]2C1 [Example 151, (7aS,9R,11aR)-11a-Ethyl-9-hydroxy-9-propyl-6,7,7a,8,9,10,11,11a-octahydro-5H-dibenzo[a,c]cycloheptene-3-carboxylic acid (2-chloro-phenyl)-amide]"
